Settings: comparison with donepezil hydrochloride tablet

COc1cc2c(cc1OC)C(=O)C(CC1CCN(Cc3ccccc3)CC1)C2.O=S(=O)(O)O (stereo not shown) [Example 12, donepezil sulfate (1:1)]
Stability of tablets prepared from the salt, compared with the tablet prepared from the hydrochloride salt: practically identical to that of the tablet prepared from the hydrochloride salt

From patent publication US20080194628A1, “Donepezil Salts Suitable for the Preparation of Pharmaceutical Compositions” (priority 2004, published 2008)
